Test results from PMC6348446 (Journal of Medicinal Chemistry, 2018).

Assays:
[1] = Parallel Artificial Membrane Permeability Assay (PAMPA); type: in vitro ADME; settings: for recovery at 5 h, 10 µM / PAMPA pH 7.4 HIGH/MED/LOW: pH 7.4; for PAMPA pH 7.4 HIGH/MED/LOW: permeability class
Method: Test compound (10 µM) was incubated in pre-warmed plasma at 37 ᵒC (that is buffered to pH 7.4 in ratio of 70:30 plasma to buffer). Immediately, at time zero, then at 30, 60, 120, and 180 min, a 50 µL aliquot of the incubation mixture was removed and mixed with 200 µL acetonitrile containing Donepezil as the internal standard (50 ng/ml) to stop the reaction. The samples were centrifuged to sediment the precipitated protein and the plates then sealed prior to UPLC-MS/MS analysis using a Xevo TQ-S Micro (Waters Corporation, USA).
XLfit (IDBS, UK) was used to calculate the exponential decay and consequently the rate constant (k) from the ratio of peak area of test compound to internal standard at each time point. The half-life was calculated for each test compound from the rate by using the […]
Parallel Artificial Membrane Permeability Assay (PAMPA)
PAMPA was performed using a 96-well pre-coated BD Gentest™ PAMPA plate (BD Biosciences, U.K.). Each well was divided into two chambers; donor and acceptor, separated by a lipid-oil-lipid tri-layer constructed in a porous filter. The effective permeability, Pe, of the compound was measured at pH 7.4. Stock solutions (5 mM) of the compound were prepared in DMSO. The compound was then further diluted to 10 µM in phosphate buffered […]
saline at pH 7.4. […] The compound […]
dissolved in phosphate buffered saline was then added to the donor side of the membrane and phosphate buffered saline without compound was added to the acceptor side. The PAMPA plate was left at room temperature for 5 h. After which time, an aliquot (100 µL) was then […]
removed from both acceptor and donor compartments and mixed with acetonitrile (80 µL) containing an internal standard. The samples were centrifuged (10 min, 5 °C, 3270 g) to sediment precipitated protein and sealed prior to UPLC-MS/MS analysis using a Xevo TQ-S Micro (Waters Corp, USA). Pe was calculated as shown in the below equation: […]
CA(t) = peak area of compound present in acceptor well at time t = 18000 s Cequi = [CD(t) x VD + CA(t) x VA] / (VD + VA)
VA = acceptor well volume
CD(t) = peak area of compound present in donor well at time t = 18000 s Recovery of compound from donor and acceptor wells was calculated and data was only accepted when recovery exceeded 70%.
Using a fast gradient, reverse-phase HPLC method to determine the chromatographic hydrophobicity index (CHI) was determined as described by Camurri and Zaramella (ref. 3) and Valko et al. (ref. 4). Briefly, by plotting the retention time of a set of reference

[2] = molecular target: T1, VCB in the presence of BRD9-BD (Homo sapiens, UniProt P40337+Q9H8M2); assay: Fluorescence polarization, displacement of FAM-labeled HIF-1α peptide in the presence of BRD9-BD (ternary); type: binding; settings: binary versus ternary
T1 construct: the bromodomain (residues 134–239) for BRD9 (Q9H8M2); His6 (cleaved yes); made in house; host or cells: Escherichia coli BL21(DE3)
T1 sequence (P40337 54-213 limits assumed): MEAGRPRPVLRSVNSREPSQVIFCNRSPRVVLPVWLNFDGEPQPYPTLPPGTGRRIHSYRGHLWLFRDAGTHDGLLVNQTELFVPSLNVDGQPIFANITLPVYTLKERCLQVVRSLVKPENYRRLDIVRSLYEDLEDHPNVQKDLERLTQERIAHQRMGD
T1 sequence (Q15369 17-112 partner limits assumed): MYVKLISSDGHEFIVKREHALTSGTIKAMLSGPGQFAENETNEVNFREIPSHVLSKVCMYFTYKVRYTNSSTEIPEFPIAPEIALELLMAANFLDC
T1 sequence (Q15370 1-104 partner limits assumed): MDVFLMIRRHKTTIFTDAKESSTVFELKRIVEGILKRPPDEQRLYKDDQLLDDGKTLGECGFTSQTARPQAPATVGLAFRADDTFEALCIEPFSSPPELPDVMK
T1 sequence (Q9H8M2 134-239 limits assumed): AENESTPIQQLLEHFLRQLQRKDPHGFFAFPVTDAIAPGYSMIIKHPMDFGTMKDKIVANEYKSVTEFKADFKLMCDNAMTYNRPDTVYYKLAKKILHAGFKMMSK

recovery at 5 h, 10 µM ([1]; PAMPA) [%] | Papp at 5 h, 10 µM ([1]; PAMPA, pH 7.4, 5 h, read-out: PAMPA pH 7.4 Pe) [×10⁻⁶ cm/s] | PAMPA pH 7.4 HIGH/MED/LOW [1] | PAMPA pH 7.4 Pe ([1]; pH 7.4, 5 h) [nm/s] | PAMPA pH 7.4 HIGH/MED/LOW ([1]; listed as VZ185) | cooperativity α (FP) [2] | Compound
87 | 0.036 | LOW |  |  |  | COc1cc(-c2cn(C)c(=O)c3cnccc23)cc(OC)c1CN1CCN(CCCCCOc2cc(-c3scnc3C)ccc2CNC(=O)[C@@H]2C[C@H](O)CN2C(=O)[C@@H](NC(=O)C2(F)CC2)C(C)(C)C)CC1 [cisVZ185]
 |  |  | 0.01 | LOW and low cell permeability | 1.00 | COc1cc(-c2cn(C)c(=O)c3cnccc23)cc(OC)c1CN1CCN(CCCCCOc2cc(-c3scnc3C)ccc2CNC(=O)[C@@H]2C[C@@H](O)CN2C(=O)[C@@H](NC(=O)C2(F)CC2)C(C)(C)C)CC1 [Compound 51, (2S,4R)-N-(2-((5-(4-(2,6-Dimethoxy-4-(2-methyl-1-oxo-1,2-dihydro-2,7-naphthyridin-4-yl)benzyl)piperazin-1-yl)pentyl)oxy)-4-(4-methylthiazol-5-yl)benzyl)-1-((S)-2-(1-fluorocyclopropane-1-carboxamido)-3,3-dimethylbutanoyl)-4-hydroxypyrrolidine-2-carboxamide]
 |  |  |  |  | 0.24 | COc1cc(-c2cn(C)c(=O)c3cnccc23)cc(OC)c1CN1CCN(CCOCCOCC(=O)N[C@H](C(=O)N2C[C@H](O)C[C@H]2C(=O)NCc2ccc(-c3scnc3C)cc2)C(C)(C)C)CC1 [Compound 5, (2S,4R)-1-((S)-2-(2-(2-(2-(4-(2,6-Dimethoxy-4-(2-methyl-1-oxo-1,2-dihydro-2,7-naphthyridin-4-yl)benzyl)piperazin-1-yl)ethoxy)ethoxy)acetamido)-3,3-dimethylbutanoyl)-4-hydroxy-N-(4-(4-methylthiazol-5-yl)benzyl)pyrrolidine-2-carboxamide]
94 |  | LOW and low cell permeability | 0.01 |  | 1.17 | COc1cc(-c2cn(C)c(=O)c3cnccc23)cc(OC)c1CN1CCN(CCOCCOCCOc2cc(-c3scnc3C)ccc2CNC(=O)[C@@H]2C[C@@H](O)CN2C(=O)[C@@H](NC(=O)C2(F)CC2)C(C)(C)C)CC1 [Compound 26, (2S,4R)-N-(2-(2-(2-(2-(4-(2,6-Dimethoxy-4-(2-methyl-1-oxo-1,2-dihydro-2,7-naphthyridin-4-yl)benzyl)piperazin-1-yl)ethoxy)ethoxy)ethoxy)-4-(4-methylthiazol-5-yl)benzyl)-1-((S)-2-(1-fluorocyclopropane-1-carboxamido)-3,3-dimethylbutanoyl)-4-hydroxypyrrolidine-2-carboxamide]
